From PubChem BioAssay (NCI)
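Briefly, cells in 96-well plates were exposed to five compound concentrations for 48 h, and endpoints were estimated by linear interpolation. GI50 marks 50% less growth. TGI: concentration producing complete growth inhibition.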

Legend:
Assay in all cases: NCI tumour cell line growth inhibition, 48 h
LOX IMVI melanoma = system: LOX IMVI melanoma
HOP-92 NSCLC = system: HOP-92 NSCLC
MALME-3M melanoma = system: MALME-3M melanoma
BT-549 breast = system: BT-549 breast
T-47D breast = system: T-47D breast
NCI-H23 lung = system: NCI-H23 lung
OVCAR-3 ovarian = system: OVCAR-3 ovarian
MDA-MB-231 breast = system: MDA-MB-231 breast
OVCAR-5 ovarian = system: OVCAR-5 ovarian
SF-295 CNS = system: SF-295 CNS
HCT-15 colon = system: HCT-15 colon
SW-620 colon = system: SW-620 colon
TK-10 renal = system: TK-10 renal
HCT-116 colon = system: HCT-116 colon
A549 NSCLC = system: A549 NSCLC
SNB-19 CNS = system: SNB-19 CNS
K-562 leukemia = system: K-562 leukemia
M14 melanoma = system: M14 melanoma
UACC-257 melanoma = system: UACC-257 melanoma
OVCAR-8 ovarian = system: OVCAR-8 ovarian
RXF 393 renal = system: RXF 393 renal
OVCAR-4 ovarian = system: OVCAR-4 ovarian
IGROV1 ovarian = system: IGROV1 ovarian
SR leukemia = system: SR leukemia
SF-539 CNS = system: SF-539 CNS
HL-60(TB) leukemia = system: HL-60(TB) leukemia
MOLT-4 leukemia = system: MOLT-4 leukemia
HS 578T breast = system: HS 578T breast
HCC-2998 colon = system: HCC-2998 colon
SK-MEL-28 melanoma = system: SK-MEL-28 melanoma
PC-3 prostate = system: PC-3 prostate
SK-MEL-2 melanoma = system: SK-MEL-2 melanoma
MCF7 breast = system: MCF7 breast
NCI/ADR-RES ovarian = system: NCI/ADR-RES ovarian
COLO 205 colon = system: COLO 205 colon
SK-MEL-5 melanoma = system: SK-MEL-5 melanoma
KM12 colon = system: KM12 colon
CAKI-1 renal = system: CAKI-1 renal
MDA-MB-435 = system: MDA-MB-435
NCI-H522 lung = system: NCI-H522 lung
NCI-H460 lung = system: NCI-H460 lung
U251 CNS = system: U251 CNS
SN12C renal = system: SN12C renal
DU-145 prostate = system: DU-145 prostate
SF-268 CNS = system: SF-268 CNS
HOP-62 NSCLC = system: HOP-62 NSCLC
ACHN renal = system: ACHN renal
UO-31 renal = system: UO-31 renal
CCRF-CEM leukemia = system: CCRF-CEM leukemia
HT29 colon = system: HT29 colon
786-0 renal = system: 786-0 renal
NCI-H226 lung = system: NCI-H226 lung
UACC-62 melanoma = system: UACC-62 melanoma
SNB-75 CNS = system: SNB-75 CNS
SK-OV-3 ovarian = system: SK-OV-3 ovarian
RPMI-8226 leukemia = system: RPMI-8226 leukemia
A498 renal = system: A498 renal

## CCCOC(=O)c1ccc2c(c1)[N+](=O)C(C(=O)c1ccccc1)=C(C(F)(F)F)[N+]2=O
LOX IMVI melanoma
  GI50: 1720 nM
  TGI: 3.35 µM
HOP-92 NSCLC
  GI50: 1130 nM
  TGI: 2430 nM
MALME-3M melanoma
  GI50: 1950 nM
  TGI: 3.64 µM
BT-549 breast
  GI50: 1790 nM
  TGI: 3.27 µM
T-47D breast
  GI50: 1800 nM
  TGI: 3.69 µM
NCI-H23 lung
  GI50: 1780 nM
  TGI: 3.38 µM
OVCAR-3 ovarian
  GI50: 1740 nM
  TGI: 3.17 µM
MDA-MB-231 breast
  GI50: 1910 nM
  TGI: 3.45 µM
OVCAR-5 ovarian
  GI50: 1770 nM
  TGI: 3.31 µM
SF-295 CNS
  GI50: 1680 nM
  TGI: 3.21 µM
HCT-15 colon
  GI50: 1630 nM
  TGI: 3.3 µM
SW-620 colon
  GI50: 1840 nM
  TGI: 3.68 µM
TK-10 renal
  GI50: 1590 nM
  TGI: 2990 nM
HCT-116 colon
  GI50: 1700 nM
  TGI: 3.36 µM
A549 NSCLC
  GI50: 1670 nM
  TGI: 3.33 µM
SNB-19 CNS
  GI50: 1750 nM
  TGI: 3.22 µM
K-562 leukemia
  GI50: 2100 nM
  TGI: 4.12 µM
M14 melanoma
  GI50: 1820 nM
  TGI: 3.37 µM
UACC-257 melanoma
  GI50: 1750 nM
  TGI: 3.22 µM
OVCAR-8 ovarian
  GI50: 1840 nM
  TGI: 3.55 µM
RXF 393 renal
  GI50: 1700 nM
  TGI: 3.25 µM
OVCAR-4 ovarian
  GI50: 1740 nM
  TGI: 3.36 µM
IGROV1 ovarian
  GI50: 1830 nM
  TGI: 3.61 µM
SR leukemia
  GI50: 1880 nM
  TGI: 4.85 µM
SF-539 CNS
  GI50: 1790 nM
  TGI: 3.21 µM
HL-60(TB) leukemia
  GI50: 1960 nM
  TGI: 3.88 µM
MOLT-4 leukemia
  GI50: 2050 nM
  TGI: 4.09 µM
HS 578T breast
  GI50: 2010 nM
  TGI: 4.53 µM
HCC-2998 colon
  GI50: 1810 nM
  TGI: 3.29 µM
SK-MEL-28 melanoma
  GI50: 1850 nM
  TGI: 3.51 µM
PC-3 prostate
  GI50: 1550 nM
  TGI: 2940 nM
SK-MEL-2 melanoma
  GI50: 1840 nM
  TGI: 3.52 µM
MCF7 breast
  GI50: 1640 nM
  TGI: 3.33 µM
NCI/ADR-RES ovarian
  GI50: 1890 nM
  TGI: 3.69 µM
COLO 205 colon
  GI50: 2090 nM
  TGI: 3.85 µM
SK-MEL-5 melanoma
  GI50: 1650 nM
  TGI: 3.11 µM
KM12 colon
  GI50: 1810 nM
  TGI: 3.44 µM
CAKI-1 renal
  GI50: 1780 nM
  TGI: 3.37 µM
MDA-MB-435
  GI50: 1710 nM
  TGI: 3.26 µM
NCI-H522 lung
  GI50: 1800 nM
  TGI: 3.5 µM
NCI-H460 lung
  GI50: 2040 nM
  TGI: 4.28 µM
U251 CNS
  GI50: 1760 nM
  TGI: 3.2 µM
SN12C renal
  GI50: 1790 nM
  TGI: 3.36 µM
DU-145 prostate
  GI50: 1840 nM
  TGI: 3.31 µM
SF-268 CNS
  GI50: 1780 nM
  TGI: 3.48 µM
HOP-62 NSCLC
  GI50: 1800 nM
  TGI: 3.37 µM
ACHN renal
  GI50: 1780 nM
  TGI: 3.26 µM
UO-31 renal
  GI50: 1670 nM
  TGI: 3.06 µM
CCRF-CEM leukemia
  GI50: 1850 nM
  TGI: 3.98 µM
HT29 colon
  GI50: 2110 nM
  TGI: 4.04 µM
786-0 renal
  GI50: 1830 nM
  TGI: 3.32 µM
NCI-H226 lung
  GI50: 2060 nM
  TGI: 4.69 µM
UACC-62 melanoma
  GI50: 1760 nM
  TGI: 3.26 µM
SNB-75 CNS
  GI50: 1490 nM
  TGI: 3000 nM
SK-OV-3 ovarian
  GI50: 1890 nM
  TGI: 3.33 µM
RPMI-8226 leukemia
  GI50: 1940 nM
  TGI: 4.11 µM
A498 renal
  GI50: 1300 nM
  TGI: 2830 nM
